In series [1] the target is T1, Bromodomain-containing protein 4 (Homo sapiens, UniProt O60885). In words: Inhibition of recombinant human N-terminal His6-tagged BRD4 at 20 uM by TR-FRET assay relative to control.
The nature of series [2]: Solubility of the compound in DMSO at 200 mM. The series is classed as physicochemical. The note with it: 200000 µM.
Series [3] is described as follows: Solubility of the compound in aqueous buffer at 1 mM. The note with it: 1000 µM. The series is classed as physicochemical.
The target in series [4] is T1, Bromodomain-containing protein 4. The series is described as follows: Binding affinity to recombinant human N-terminal His6-tagged BRD4 bromodomain 1 (44 to 168 residues) expressed in Escherichia coli BL21(DE3) assessed as change in melting temperature at 20 uM by differential scanning fluorimetry. (DSF heats the sample and reads unfolding from a dye or from intrinsic fluorescence.)

The target is the same in series [5]. The series is described as follows: Inhibition of recombinant human N-terminal His6-tagged BRD4 by TR-FRET assay. Background: In TR-FRET formats the signal depends on donor and acceptor labels being close together.
Series [6] shares this target. The series is described as follows: Binding affinity to recombinant human N-terminal His6-tagged BRD4 bromodomain 1 (44 to 168 residues) expressed in Escherichia coli BL21(DE3) assessed as change in melting temperature at 40 uM by differential scanning fluorimetry.
The target is the same in series [7]. The series is described as follows: Binding affinity to recombinant human N-terminal His6-tagged BRD4 bromodomain 1 (44 to 168 residues) expressed in Escherichia coli BL21(DE3) assessed as change in melting temperature at 10 uM by differential scanning fluorimetry.
Series [8] addresses Carbonic anhydrase 2 (Bos taurus) (UniProt P00921). In words: Binding affinity to bovine carbonic anhydrase-2 assessed as change in melting temperature at 20 uM by differential scanning fluorimetry.
For series [9], the target named is T1, Bromodomain-containing protein 4. In words: Binding affinity to recombinant human N-terminal His6-tagged BRD4 bromodomain 1 (44 to 168 residues) expressed in Escherichia coli BL21(DE3) assessed as increase in melting temperature at 50 to 200 uM by differential scanning fluorimetry.

Active and inactive are the calls of the source. The rule behind the calls is not given here.

Sequence of Carbonic anhydrase 2 (Bos taurus) (P00921 2-260 limits assumed): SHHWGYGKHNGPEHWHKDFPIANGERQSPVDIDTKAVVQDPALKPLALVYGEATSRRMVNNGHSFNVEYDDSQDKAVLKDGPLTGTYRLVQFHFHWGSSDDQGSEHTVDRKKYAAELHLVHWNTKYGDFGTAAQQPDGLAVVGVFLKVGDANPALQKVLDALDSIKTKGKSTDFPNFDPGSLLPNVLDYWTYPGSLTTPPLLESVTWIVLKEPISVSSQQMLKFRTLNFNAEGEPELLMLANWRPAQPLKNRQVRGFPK

For orientation: inhibition means the drop in the measured response relative to a control, in per cent. The term ΔTm denotes the change in melting temperature against a reference sample. The term IC50 denotes the concentration needed to halve the response being measured. For the molecule `Cc1nc(-c2cccc(NC(=O)c3ccc4[nH]c(C)c(C)c4c3)c2)cs1`, the inhibition in [1] is 80.5%. In addition, the solubility result in series [2] and in [3] was “Soluble” each time. In addition, in [4], the shift in melting temperature (ΔTm) worked out at 1.2 °C. Also, the 50% inhibitory concentration (IC50) in series [5] turned out to be 7.4 µM. Moreover, the results for the deltaTm in series [6], in series [7] and in series [8] were more than 1 K, more than 0.5 K and more than 0.5 K, respectively. Further, the result in series [9] was Active.
On to `Cc1ccc(S(=O)(=O)Nc2ccc3c(c2)n(C)c(=O)n3C)c(C)c1`, for which the half-inhibitory concentration (IC50) in [5] is 2.5 µM.
Consider `CC1CCCC(C)N1C(=O)CSc1nc2sc3c(c2c(=O)n1C)CCCC3` (centres undefined), for which, in [1], the inhibition was 68.2%. For the same molecule, the solubility entry in [2] and in [3] was “Soluble” each time. For the same molecule, in series [4], the shift in melting temperature (ΔTm) is -1.85 °C. Moreover, in series [5], the 50% inhibitory concentration (IC50) was more than 100 µM. The deltaTm in [6] was more than 1 K; in series [7], more than 0.5 K; in series [8], more than 0.5 K. In series [9], the outcome was inactive.
Turning to `COc1cccc(C(=O)Nc2ccc3c(c2)n(C)c(=O)n3C)c1`, the IC50 in [5] was found to be 15.8 µM.
On to `Cc1ccc(C(=O)Nc2ccc3nc(N4CCCC4)sc3c2)cc1[N+](=O)[O-]`, for which the inhibition in series [1] came to 72.4%. The solubility result in series [2] and in [3] was “Soluble” throughout. For the same molecule, the shift in melting temperature (ΔTm) in series [4] came out at 2.01 °C. For the same molecule, the half-maximal inhibitory concentration (IC50) in series [5] was more than 100 µM. Further, the deltaTm is more than 1 K in series [6], more than 0.5 K in series [7] and more than 0.5 K in series [8]. The outcome in series [9] was Active.
Regarding `COCCOc1ccccc1CNc1ccc2c(c1)n(C)c(=O)n2C`, the inhibition in series [1] is 63.4%. Also, the solubility result in series [2] and in series [3] was “Soluble” each time. Also, the ΔTm in series [4] was 1.39 °C. The half-inhibitory concentration (IC50) in series [5] worked out at 21 µM. For the same molecule, the figures for the deltaTm in [6], in series [7] and in [8] were more than 1 K, more than 0.5 K and more than 0.5 K, respectively. For the same molecule, the outcome in [9] was Active.
For `Cc1nc2ccc(C(=O)O)cc2o1`, the solubility entry in series [2] and in series [3] was “Soluble” in each case. In addition, the thermal shift (ΔTm) in series [4] is -2.1 °C. Further, the deltaTm is more than 1 K in [6], more than 0.5 K in series [7] and more than 0.5 K in [8]. Also, the result in series [9] was Active.
Consider `Cn1c(=O)n(C)c2cc(NC(=O)c3cc4c(s3)CCC4)ccc21`, for which the inhibition in series [1] was 76.5%. In addition, the solubility entry in series [2] and in [3] was “Soluble” each time. Moreover, the ΔTm in [4] stood at 1.88 °C. The 50% inhibitory concentration (IC50) in series [5] was determined as 1.9 µM. Besides, the deltaTm in [6] was more than 1 K; in series [7], more than 0.5 K; in series [8], more than 0.5 K. Besides, the result in [9] was Active.
Take `Cn1cc(NC(=O)c2occc2COc2ccccc2)ccc1=O`: in [1], the inhibition came to 64.4%. Further, the solubility entry in series [2] and in series [3] was “Soluble” throughout. For the same molecule, the ΔTm in series [4] was found to be 1.2 °C. The IC50 in series [5] turned out to be 3 µM. The deltaTm in [6] is more than 1 K; in series [7], more than 0.5 K; in series [8] it was more than 0.5 K. Besides, the result in series [9] was Active.
Consider `Nc1ccc2nc(N3CCCC3)sc2c1`, for which the inhibition entry in series [1] is “Active”. Besides, the solubility entry in [2] and in series [3] was “Soluble” in each case. Further, the ΔTm in series [4] is 1.7 °C. Moreover, the deltaTm was more than 1 K in series [6], more than 0.5 K in series [7] and more than 0.5 K in [8]. The outcome in series [9] was Active.
In the case of `CC1Oc2ccc(N)cc2NC1=O` (centres undefined), the solubility entry in series [2] and in series [3] was “Soluble” each time. Also, in [4], the ΔTm amounted to 2.8 °C. The deltaTm in series [6] was more than 1 K; in [7], more than 0.5 K; in series [8] it was more than 0.5 K. The outcome in series [9] was Active.
Consider `CC1(C)C(=O)Nc2cc(C(=O)O)ccc21`, for which the solubility result in series [2] and in [3] was “Soluble” throughout. Moreover, the ΔTm in series [4] was 2.1 °C. Further, the deltaTm in series [6] was more than 1 K; in [7] it was more than 0.5 K; in series [8] it was more than 0.5 K. Besides, in series [9], the outcome was Active.
With `O=C1C(=O)N(CCCOc2ccccc2)c2ccc(Cl)cc21`, the inhibition in series [1] was 65.9%. Besides, the solubility entry in series [2] and in [3] was “Soluble” in each case. The ΔTm in series [4] was -2.63 °C. Also, in [5], the half-inhibitory concentration (IC50) was more than 100 µM. Moreover, the deltaTm in [6] is more than 1 K; in series [7], more than 0.5 K; in [8], more than 0.5 K. In series [9], the result was inactive.
As to `COc1ccc(OC)c(CCC(=O)Nc2ccc3c(c2)n(C)c(=O)n3C)c1`, the inhibition in series [1] stood at 67%. Further, the solubility result in [2] and in series [3] was “Soluble” throughout. Besides, the ΔTm in series [4] was found to be 0.82 °C. Besides, the IC50 in series [5] was 60 µM. The values for the deltaTm in series [6], in [7] and in series [8] were more than 1 K, more than 0.5 K and more than 0.5 K, respectively. Also, in series [9], the result was Active.
For `Cn1c(=O)n(C)c2cc(N)ccc21`, the inhibition entry in series [1] is “Active”. The solubility entry in [2] and in series [3] was “Soluble” in each case. Moreover, the ΔTm in series [4] was determined as 2.8 °C. Besides, the figures for the deltaTm in series [6], in series [7] and in [8] were more than 1 K, more than 0.5 K and more than 0.5 K, respectively. For the same molecule, the result in [9] was Active.
For the molecule `Cc1cc2cc(NC(=O)c3sc4nc(C(F)(F)F)ccc4c3C)ccc2[nH]1`, the inhibition in series [1] is 72.7%. For the same molecule, the solubility result in series [2] and in series [3] was “Soluble” in each case. Besides, in [4], the ΔTm came to 1.39 °C. The half-maximal inhibitory concentration (IC50) in [5] was found to be 24 µM. For the same molecule, the deltaTm was more than 1 K in [6], more than 0.5 K in series [7] and more than 0.5 K in [8]. Moreover, in [9], the outcome was Active.
`Cc1nc(-c2cccc(N)c2)cs1`: the inhibition result in [1] was “inactive”. The solubility entry in series [2] and in series [3] was “Soluble” each time. In addition, the deltaTm in series [6] was more than 1 K; in [7] it was more than 0.5 K; in [8] it was more than 0.5 K. In addition, the result in [9] was Active.
Take `Cc1cc2cc(NC(=O)c3ccc(Oc4ccc(C(F)(F)F)cn4)cc3)ccc2[nH]1`: the inhibition in [1] was 63.3%. Also, the solubility entry in series [2] and in series [3] was “Soluble” throughout. Also, the ΔTm in [4] stood at 1.32 °C. Moreover, the IC50 in series [5] amounted to 27 µM. For the same molecule, the deltaTm is more than 1 K in series [6], more than 0.5 K in series [7] and more than 0.5 K in series [8]. For the same molecule, the outcome in series [9] was Active.
Regarding `Cc1cc2cc(N)ccc2[nH]1`, in [1], the inhibition entry is “Active”. In addition, the solubility result in [2] and in series [3] was “Soluble” throughout. In addition, the thermal shift (ΔTm) in series [4] was found to be 1.4 °C. Moreover, the values for the deltaTm in series [6], in [7] and in series [8] were more than 1 K, more than 0.5 K and more than 0.5 K, respectively. Moreover, in series [9], the result was Active.
